Reference: ChEMBL document CHEMBL4257485, “The critical role of novel benzophenone analogs on tumor growth inhibition targeting angiogenesis and apoptosis” (Medchemcomm, 2018)
Calls of active or inactive are those of the source. The rule behind the calls is not given here.

Columns and labels:
A549 [1] = assay: Cytotoxicity against human A549 cells after 48 hrs by MTT assay; assay type: functional, cell-based; conditions: A549, 48 h
HeLa [2] = assay: Cytotoxicity against human HeLa cells after 48 hrs by MTT assay; assay type: functional, cell-based
MCF7 [3] = assay: Cytotoxicity against human MCF7 cells after 48 hrs by LDH release assay; assay type: functional, cell-based; conditions: MCF7, 48 h
MCF7 [4] = assay: Cytotoxicity against human MCF7 cells after 48 hrs by trypan blue exclusion assay; assay type: functional, cell-based; conditions: MCF7, 48 h
NIH3T3 [5] = assay: Cytotoxicity against mouse NIH/3T3 cells after 48 hrs by MTT assay; assay type: cell-based; conditions: NIH3T3, 48 h
A549 [6] = assay: Cytotoxicity against human A549 cells after 48 hrs by trypan blue exclusion assay; assay type: functional, cell-based; conditions: A549, 48 h
NIH3T3 [7] = assay: Cytotoxicity against mouse NIH/3T3 cells after 48 hrs by trypan blue exclusion assay; assay type: cell-based; conditions: NIH3T3, 48 h
A549 [8] = assay: Cytotoxicity against human A549 cells after 48 hrs by LDH release assay; assay type: functional, cell-based; conditions: A549, 48 h
HeLa [9] = assay: Cytotoxicity against human HeLa cells after 48 hrs by trypan blue exclusion assay; assay type: functional, cell-based
HeLa [10] = assay: Cytotoxicity against human HeLa cells after 48 hrs by LDH release assay; assay type: functional, cell-based
MCF7 [11] = assay: Cytotoxicity against human MCF7 cells after 48 hrs by MTT assay; assay type: functional, cell-based; conditions: MCF7, 48 h
NIH3T3 [12] = assay: Cytotoxicity against mouse NIH/3T3 cells after 48 hrs by LDH release assay; assay type: cell-based; conditions: NIH3T3, 48 h
A549 [13] = assay: Induction of morphological changes in human A549 cells assessed as formation of apoptotic bodies by Giemsa staining-based microscopic method; assay type: functional, cell-based
A549 [14] = assay: Cell cycle arrest in human A549 cells assessed as accumulation at S phase at IC50 after 16 hrs by propidium iodide staining-based flow cytometric method (reference value: 24.8%); assay type: functional
A549 [15] = assay: Induction of apoptosis in human A549 cells assessed as live cells at IC50 after 12 to 15 hrs by annexin-V-FITC/propidium iodide staining-based flow cytometric method (reference value: 73.8%); assay type: functional
A549 [16] = assay: Induction of apoptosis in human A549 cells assessed as early apoptotic cells at IC50 after 12 to 15 hrs by annexin-V-FITC/propidium iodide staining-based flow cytometric method (reference value: 1.65%); assay type: functional
A549 [17] = assay: Cell cycle arrest in human A549 cells assessed as accumulation at G0/G1 phase at IC50 after 16 hrs by propidium iodide staining-based flow cytometric method (reference value: 70.8%); assay type: functional
A549 [18] = assay: Antitumor activity against human A549 cells xenografted in chicken CAM assessed as reduction in tumor progression at 1 mg/ml measured on day 12 post fertilization by hematoxylin and eosin staining-based assay relative to control; assay type: functional
A549 [19] = assay: Inhibition of migration of human A549 cells at 50 uM after 48 hrs by scratch wound assay relative to control; assay type: functional; conditions: A549, 48 h
A549 [20] = assay: Cell cycle arrest in human A549 cells assessed as decrease in cell levels at G2/M phase at IC50 after 24 to 48 hrs by propidium iodide staining-based flow cytometric method; assay type: functional
A549 [21] = assay: Antiangiogenic activity in human A549 cells xenografted in chicken CAM assessed as reduction in recombinant VEGF165-induced MVD/HPF measured on day 12 post fertilization by hematoxylin and eosin staining-based assay; assay type: functional, cell-based
A549 [22] = assay: Induction of morphological changes in human A549 cells assessed as membrane blebbing by Giemsa staining-based microscopic method; assay type: functional, cell-based
[23] = system: Enterobacteria phage lambda; assay: Induction of lambda phage DNA fragmentation by agarose gel electrophoresis
Chorioallantoic membrane [24] = assay: In vivo angioprotective activity in chicken CAM assessed as inhibition of recombinant VEGF165-induced neovuscularization at 1 mg/ml after 72 hrs; assay type: functional, Gallus gallus
Chorioallantoic membrane [25] = assay: In vivo angioprotective activity in chicken CAM assessed as decrease in recombinant VEGF165-induced total vessel length at 1 mg/ml after 72 hrs; assay type: functional, Gallus gallus; parameters: scale not given: the % may be the effect or the level left
A549 [26] = assay: Induction of apoptosis in human A549 cells assessed as necrotic cells at IC50 after 12 to 15 hrs by annexin-V-FITC/propidium iodide staining-based flow cytometric method (reference value: 10.2%); assay type: functional
A549 [27] = assay: Cell cycle arrest in human A549 cells assessed as accumulation at G2/M phase at IC50 after 16 hrs by propidium iodide staining-based flow cytometric method (reference value: 3.44%); assay type: functional
A549 [28] = assay: Inhibition of migration of human A549 cells at 25 uM after 48 hrs by scratch wound assay relative to control; assay type: functional; conditions: A549, 48 h
Chorioallantoic membrane [29] = assay: Ex vivo angioprotective activity in chicken CAM assessed as decrease in recombinant VEGF165-induced total vessel length at 1 mg/ml after 72 hrs; assay type: functional, tissue-based; parameters: scale not given: the % may be the effect or the level left; conditions: Gallus gallus
Homo sapiens = organism: Homo sapiens; assay: Induction of endonuclease activity in cytosolic fraction of human A549 cells assessed as increase in DNA lysis zone at 85 uM by SYBR green dye-based agarose gel electrophoresis
A549 [30] = assay: Downregulation of VEGF expression in human A549 cells by immunoblot method; assay type: functional, cell-based
A549 [31] = assay: Cell cycle arrest in human A549 cells assessed as increase in accumulation at sub-G0 phase at IC50 after 48 hrs by propidium iodide staining-based flow cytometric method; assay type: functional
A549 [32] = assay: Antiangiogenic activity in human A549 cells xenografted in chicken CAM assessed as reduction in recombinant VEGF165-induced MVD/HPF at 1 mg/ml measured on day 12 post fertilization by hematoxylin and eosin staining-based assay relative to control; assay type: functional; parameters: scale not given: the % may be the effect or the level left
Chorioallantoic membrane [33] = assay: Ex vivo angioprotective activity in chicken CAM assessed as inhibition of recombinant VEGF165-induced neovuscularization at 1 mg/ml after 72 hrs; assay type: functional, tissue-based; conditions: Gallus gallus
A549 [34] = assay: Inhibition of colony formation of human A549 cells at 25 to 50 uM pretreated for 6 hrs followed by subsequent incubation for 12 days by crystal violet staining-based assay; assay type: functional, cell-based
A549 [35] = assay: Induction of morphological changes in human A549 cells assessed as irregular shape by Giemsa staining-based microscopic method; assay type: functional, cell-based
A549 [36] = assay: Induction of apoptosis in human A549 cells assessed as late apoptotic cells at IC50 after 12 to 15 hrs by annexin-V-FITC/propidium iodide staining-based flow cytometric method (reference value: 14.3%); assay type: functional
A549 [37] = assay: Cell cycle arrest in human A549 cells assessed as accumulation at sub-G1 phase at IC50 after 16 hrs by propidium iodide staining-based flow cytometric method (reference value: 0.69%); assay type: functional
A549 [38] = assay: Induction of apoptosis in human A549 cells assessed as caspase-3 activation by immunoblot method; assay type: functional, cell-based
A549 [39] = assay: Induction of apoptosis in human A549 cells assessed as live cells after 12 to 15 hrs by annexin-V-FITC/propidium iodide staining-based flow cytometric method (reference value: 73.8%); assay type: functional
A549 [40] = assay: Induction of apoptosis in human A549 cells assessed as cell condensation after 12 to 15 hrs by flow cytometric method; assay type: functional, cell-based
A549 [41] = assay: Cell cycle arrest in human A549 cells assessed as accumulation at S phase after 16 hrs by propidium iodide staining-based flow cytometric method (reference value: 24.8%); assay type: functional
A549 [42] = assay: Induction of apoptosis in human A549 cells assessed a necrotic cells after 12 to 15 hrs by annexin-V-FITC/propidium iodide staining-based flow cytometric method (reference value: 10.2%); assay type: functional
A549 [43] = assay: Cell cycle arrest in human A549 cells assessed as accumulation at G2/M phase after 16 hrs by propidium iodide staining-based flow cytometric method (reference value: 3.44%); assay type: functional
A549 [44] = assay: Cell cycle arrest in human A549 cells assessed as accumulation at sub-G1 phase after 16 hrs by propidium iodide staining-based flow cytometric method (reference value: 0.69%); assay type: functional
A549 [45] = assay: Induction of apoptosis in human A549 cells assessed a late apoptotic cells after 12 to 15 hrs by annexin-V-FITC/propidium iodide staining-based flow cytometric method (reference value: 14.3%); assay type: functional
A549 [46] = assay: Induction of apoptosis in human A549 cells assessed as formation of apoptotic bodies after 12 to 15 hrs by flow cytometric method; assay type: functional, cell-based
A549 [47] = assay: Induction of apoptosis in human A549 cells assessed as early apoptotic cells after 12 to 15 hrs by annexin-V-FITC/propidium iodide staining-based flow cytometric method (reference value: 1.65%); assay type: functional
A549 [48] = assay: Cell cycle arrest in human A549 cells assessed as accumulation at G0/G1 phase after 16 hrs by propidium iodide staining-based flow cytometric method (reference value: 70.8%); assay type: functional

Cc1ccc(C(=O)c2cc(F)c(OCC(=O)NNC(=O)c3ccc(=O)oc3)c(Cl)c2)cc1
IC50 (A549 [1]): 22.6 µM | IC50 (HeLa [2]): 20.9 µM | IC50 (MCF7 [3]): 24.2 µM | IC50 (MCF7 [4]): 29.1 µM | IC50 (NIH3T3 [5]): 28.9 µM | IC50 (A549 [6]): 19.6 µM | IC50 (NIH3T3 [7]): 30.8 µM | IC50 (A549 [8]): 21.4 µM | IC50 (HeLa [9]): 26.2 µM | IC50 (HeLa [10]): 26.9 µM | IC50 (MCF7 [11]): 23.6 µM | IC50 (NIH3T3 [12]): 32.1 µM

Cn1cnc(C(=O)NNC(=O)COc2ccc(C(=O)c3ccccc3)cc2)c1
IC50 (A549 [1]): 30.6 µM | IC50 (HeLa [2]): 32.9 µM | IC50 (MCF7 [3]): 31.6 µM | IC50 (MCF7 [4]): 29.6 µM | IC50 (NIH3T3 [5]): 96.9 µM | IC50 (A549 [6]): 29.6 µM | IC50 (NIH3T3 [7]): 98.8 µM | IC50 (A549 [8]): 31.6 µM | IC50 (HeLa [9]): 33.2 µM | IC50 (HeLa [10]): 31.9 µM | IC50 (MCF7 [11]): 30.6 µM | IC50 (NIH3T3 [12]): 97.4 µM

Cc1ccc(C(=O)c2cc(F)c(OCC(=O)NNC(=O)c3cn(C)cn3)c(Cl)c2)cc1
IC50 (A549 [1]): 8.8 µM | Activity (A549 [13]): Active | Activity (A549 [14]): 16.7% | IC50 (HeLa [2]): 9.9 µM | Activity (A549 [15]): 33.5% | Activity (A549 [16]): 0.6% | Activity (A549 [17]): 75.9% | fold change (FC) (A549 [18]): 1.7 | inhibition at 50 µM (A549 [19]): 78.8% | Activity (A549 [20]): Active | Activity (A549 [21]): Dose-dependent effect | IC50 (MCF7 [3]): 9.4 µM | IC50 (MCF7 [4]): 9.5 µM | Activity (A549 [22]): Active | Activity [23]: Active | inhibition (INH) (Chorioallantoic membrane [24]): 24% | Activity (Chorioallantoic membrane [25]): 85% | Activity (A549 [26]): 17.4% | Activity (A549 [27]): 1.62% | inhibition at 25 µM (A549 [28]): 15.6% | IC50 (NIH3T3 [5]): 94.2 µM | IC50 (A549 [6]): 9.6 µM | IC50 (NIH3T3 [7]): 93.8 µM | Activity (Chorioallantoic membrane [29]): 85% | Activity (Homo sapiens): Active | IC50 (A549 [8]): 9.1 µM | Activity (A549 [30]): Active | Activity (A549 [31]): Active | Activity (A549 [32]): 86.2% | inhibition (Chorioallantoic membrane [33]): 26% | inhibition (A549 [34]): Active | Activity (A549 [35]): Active | IC50 (HeLa [9]): 10.2 µM | IC50 (HeLa [10]): 10.4 µM | Activity (A549 [36]): 48.4% | Activity (A549 [37]): 5.83% | IC50 (MCF7 [11]): 9.8 µM | Activity (A549 [38]): Active | IC50 (NIH3T3 [12]): 94.9 µM

Cn1cnc(C(=O)NNC(=O)COc2c(F)cc(C(=O)c3ccc(F)cc3)cc2Cl)c1
IC50 (A549 [1]): 40.1 µM | IC50 (HeLa [2]): 42.2 µM | IC50 (MCF7 [3]): 44.6 µM | IC50 (MCF7 [4]): 44.6 µM | IC50 (NIH3T3 [5]): 89.2 µM | IC50 (A549 [6]): 39.6 µM | IC50 (NIH3T3 [7]): 94.2 µM | IC50 (A549 [8]): 40.7 µM | IC50 (HeLa [9]): 39.9 µM | IC50 (HeLa [10]): 40.9 µM | IC50 (MCF7 [11]): 45.1 µM | IC50 (NIH3T3 [12]): 94.4 µM

CC[C@@]1(O)C(=O)OCc2c1cc1n(c2=O)Cc2cc3ccccc3nc2-1 [CAMPTOTHECIN]
Activity (A549 [39]): 65.1% | Activity (A549 [40]): Active | Activity (A549 [41]): 19.2% | Activity (A549 [42]): 9.12% | Activity (A549 [43]): 2.43% | Activity (A549 [44]): 19% | Activity (A549 [45]): 23.6% | Activity (A549 [46]): Active | Activity (A549 [47]): 2.16% | Activity (A549 [48]): 59.4%
